Values quoted from earlier work, collected in patent US11890366B2, “Method for dyeing keratin material, comprising the use of an organic C1-C6 alkoxy silane and a copolymer of styrene and maleic acid (anhydride)” (Henkel AG & Co. KGaA, priority 2019, dated 2024).

| SMILES | solubility in water (25° C.) | other results |
| --- | --- | --- |
| Nc1cc(S(=O)(=O)[O-])cc2cc(S(=O)(=O)[O-])c(N=Nc3ccccc3)c(O)c12.[Na+].[Na+] [Acid Red 33, dinatrium salt of 5-amino-4-hydroxy-3-(phenylazo)-naphthalene-2,7-disulphonate] | 2500 µg/mL |  |
| O=C([O-])c1c(Cl)c(Cl)c(Cl)c(Cl)c1-c1c2c(Br)cc(=O)c(Br)c-2oc2c(Br)c(O)cc(Br)c12.O=C([O-])c1c(Cl)c(Cl)c(Cl)c(Cl)c1-c1c2c(Br)cc(=O)c(Br)c-2oc2c(Br)c(O)cc(Br)c12.[Na+].[Na+] [Acid Red 92, disodium salt of 3,4,5,6-tetrachloro-2-(1,4,5,8-tetrabromo-6-hydroxy-3-oxoxanthen-9-yl)benzoic acid] | greater than 10 g/L |  |
| O=C([O-])C1=NN(c2ccc(S(=O)(=O)[O-])cc2)C(=O)C1N=Nc1ccc(S(=O)(=O)[O-])cc1.[Na+].[Na+].[Na+] (centres unmarked) [Acid Yellow 23, trisodium salt of 4,5-dihydro-5-oxo-1-(4-sulfophenyl)-4-((4-sulfophenyl)azo)-1H-pyrazole-3-carboxylic acid] |  | solubility in water (in words) (water at 25° C.): readily soluble |
| O=S(=O)([O-])c1ccc(N=Nc2c(O)ccc3ccccc23)cc1.[Na+] [Acid Orange 7, sodium salt of 4-[(2-hydroxy-1-naphthyl)azo]benzenesulfonate] | more than 7 g/L |  |
| CCN(Cc1cccc(S(=O)(=O)[O-])c1)c1ccc(C(=C2C=CC(=[N+](CC)Cc3cccc(S(=O)(=O)[O-])c3)C=C2)c2ccccc2S(=O)(=O)[O-])cc1.[Na+].[Na+] [Acid Blue 9] |  | water solubility (25° C.): greater than 20 % by weight |
